# Test results reported in patent publication US20230083885A1, “MODULATORS OF INTEGRATED STRESS RESPONSE PATHWAY” (Praxis Biotech LLC, priority 2021, published 2023).
# Read-outs that look alike come from different tables or passages of the source.
# Columns and labels:
# [1] = system: ATF4; assay: ATF4 expression inhibition assay (ATF4 5'UTR luciferase reporter, thapsigargin-stressed); type: cell-based; settings: Homo sapiens, HEK-293T, read-out: ATF4 inhibition
# Procedure: The ATF4 reporter was prepared by fusing the human full length 5′UTR of ATF4 (NCBI Accession No. BC022088.2) upstream of the firefly luciferase coding sequence lacking the initiator methionine. The fused sequence was cloned into pLenti-EF1a-C-Myc-DDK-IRES-Puro cloning vector (Origen #PS100085) using standard methods.
# HEK293T cells carrying the ATF4 luciferase reporter were plated on 96-well plates (Nunc) at 10,000 cells per well. Cells were treated two days after seeding with 100 nM thapsigargin (Tg) (Sigma-Aldrich #T9033) in the presence of different concentrations of selected compounds ranging from 0.1 nM to 10 μM. Cells without treatment or cells treated with Tg alone were used as controls. Assay plates containing cells were incubated for 3 hours at 37° C.
# Luciferase reactions were performed using Luciferase Assay System (Promega #E1501) as specified by the manufacturer. Luminescence was read with an integration time of 1 s and a gain of 110 using a Cytation-5 multi-mode microplate reader (BioTek).
# [2] = system: Chinese hamster ovary (CHO) cells; assay: Protein synthesis assay (puromycin incorporation, Western blot); type: cell-based; settings: Cricetulus griseus, read-out: % Protein synthesis relative to untreated (1 μM test compound)
# Procedure: Chinese hamster ovary (CHO) cells were maintained at 37° C. and 5% CO2 in Dulbecco's Modified Eagle's Media (DMEM) supplemented with 10% fetal bovine serum, 2 mM L-glutamine, 100 U/ml penicillin, and 100 μg/ml streptomycin. After reaching 80% of confluence, cells were detached and seeded on 6 well plates in complete media, allowed to recover overnight and treated for 2 hours with 1 μM of the test compound (to assess protein synthesis levels in unstressed condition), or for 2 hours with 300 nM Tg in the presence of 1 μM of the test compound (to assess the recovery of protein synthesis in a stressed condition). Cells with Tg alone were used as controls.
# After the 2 hours treatments, media were replaced by adding 10 μg/ml puromycin (Sigma Aldrich #P8833) in complete media for 30 min. Media were removed and cells were lysed with SDS-PAGE lysis buffer. Lysates were transferred to 1.5 ml tubes and sonicated for 3 min and total protein amount were quantified using BCA Protein Assay Kit (Pierce). Equal amount of protein (30 μg) was loaded on SDS-PAGE gels.
# A HRP-conjugated secondary antibody (Rockland) was employed to detect immune-reactive bands using enhanced chemiluminescence (ECL Western Blotting Substrate, Pierce). Quantification of protein bands was done by densitometry using ImageJ software.
# The percentage levels were normalized to the media alone condition, which correspond to 100% protein synthesis. […]
# [3] = HEK293T cells carrying ATF4 luciferase reporter, 100 nM thapsigargin, 3 hours
# [4] = unstressed CHO cells (without Tg), 1 μM test compound, 2 hours, media alone = 100%
SMILES,"IC50 [1, 3]","activity at 1 µM [2, 4]",IC50 ([1]; 3 h),"activity at 1 µM ([2]; CHO, 2 h)"
"O=C(COc1ccc(Cl)c(F)c1)N[C@H]1CC[C@H](c2nnc(-c3ccc(Cl)c(F)c3)o2)CC1 [Compound 17, trans-2-(4-chloro-3-fluorophenoxy)-N-(4-(5-(4-chloro-3-fluorophenyl)-1,3,4-oxadiazol-2-yl)cyclohexyl)acetamide]",< 10 nM,105%,,
"O=C(Nc1ccc2cc(Cl)ccc2n1)[C@H]1CC[C@H](c2nnc([C@H]3C[C@@H](OC(F)(F)F)C3)o2)CC1 [Compound 48, trans-N-(6-chloroquinolin-2-yl)-4-(5-(cis-3-(trifluoromethoxy)cyclobutyl)-1,3,4-oxadiazol-2-yl)cyclohexanecarboxamide]",10 to 100 nM,22.4%,,
"O=C(COc1ccc(Cl)c(F)c1)N[C@H]1CC[C@H](c2nnc(C3CNc4cc(Cl)ccc4O3)o2)CC1 (stereo partly drawn) [Compound 18, trans-N-(4-(5-(6-chloro-3,4-dihydro-2H-benzo[b][1,4]oxazin-2-yl)-1,3,4-oxadiazol-2-yl)cyclohexyl)-2-(4-chloro-3-fluorophenoxy)acetamide]",< 10 nM,127%,,
"O=C(Nc1ccc2cc(Cl)ccc2n1)[C@H]1CC[C@H](c2nnc(Cc3ccc(Cl)cc3)o2)CC1 [Compound 237, trans-4-(5-(4-chlorobenzyl)-1,3,4-oxadiazol-2-yl)-N-(6-chloroquinolin-2-yl)cyclohexanecarboxamide]",10 to 100 nM,51.3%,,
"O=C(Nc1ccc2cc(Cl)ccc2n1)[C@H]1CC[C@H](c2nnc(C3CNc4cc(Cl)ccc4O3)o2)CC1 (stereo partly drawn) [Compound 45, trans-4-(5-(6-chloro-3,4-dihydro-2H-benzo[b][1,4]oxazin-2-yl)-1,3,4-oxadiazol-2-yl)-N-(6-chloroquinolin-2-yl)cyclohexanecarboxamide]",10 to 100 nM,81.8%,,
"O=C(COc1ccc(Cl)c(F)c1)NC[C@H]1CC[C@H](c2nnc(-c3ccc(Cl)cc3)o2)CC1 [Compound 3, trans-2-(4-chloro-3-fluorophenoxy)-N-((4-(5-(4-chlorophenyl)-1,3,4-oxadiazol-2-yl)cyclohexyl)methyl)acetamide]",10 to 100 nM,138%,,
"O=C(Nc1ccc2cc(Cl)ccc2n1)[C@H]1CC[C@H](c2nnc(-c3ccc4cc(Cl)ccc4n3)o2)CC1 [Compound 46, trans-N-(6-chloroquinolin-2-yl)-4-(5-(6-chloroquinolin-2-yl)-1,3,4-oxadiazol-2-yl)cyclohexanecarboxamide]",10 to 100 nM,11.8%,,
"O=C(COc1ccc(Cl)c(F)c1)N[C@H]1CC[C@H](c2nc(-c3ccc(Cl)cc3)cs2)CC1 [Compound 34, trans-2-(4-chloro-3-fluorophenoxy)-N-(4-(4-(4-chlorophenyl)thiazol-2-yl)cyclohexyl)acetamide]",,,< 10 nM,83.4%
"O=C(COc1ccc(Cl)c(F)c1)N[C@H]1CC[C@H](c2nnc(COc3ccc(Cl)c(F)c3)o2)CC1 [Compound 13, trans-2-(4-chloro-3-fluorophenoxy)-N-(4-(5-((4-chloro-3-fluorophenoxy)methyl)-1,3,4-oxadiazol-2-yl)cyclohexyl)acetamide]",< 10 nM,134%,,
"O=C(N[C@H]1CC[C@H](c2nnc(COc3ccc(Cl)cc3)o2)CC1)c1ccc2cc(Cl)ccc2n1 [Compound 9, trans-6-chloro-N-(4-(5-((4-chlorophenoxy)methyl)-1,3,4-oxadiazol-2-yl)cyclohexyl)quinoline-2-carboxamide]",10 to 100 nM,204%,,
"O=C(Nc1ccc2cc(Cl)ccc2n1)[C@H]1CC[C@H](c2nnc(C3CCC(C(F)(F)F)CC3)o2)CC1 (stereo partly drawn) [Compound 29, trans-N-(6-chloroquinolin-2-yl)-4-(5-(4-(trifluoromethyl)cyclohexyl)-1,3,4-oxadiazol-2-yl)cyclohexanecarboxamide]",> 1000 nM,11.5%,,
"O=C(COc1ccc(Cl)c(F)c1)N[C@H]1CC[C@H](c2nnc(Cc3ccc(Cl)cc3)o2)CC1 [Compound 238, 2-(4-chloro-3-fluorophenoxy)-N-(trans-4-(5-(4-chlorobenzyl)-1,3,4-oxadiazol-2-yl)cyclohexyl)acetamide]",< 10 nM,74.6%,,
"O=C(N[C@H]1CC[C@H](c2nnc(COc3ccc(Cl)cc3)o2)CC1)c1cnc(C(F)F)cn1 [Compound 16, trans-N-(4-(5-((4-chlorophenoxy)methyl)-1,3,4-oxadiazol-2-yl)cyclohexyl)-5-(difluoromethyl)pyrazine-2-carboxamide]",> 1000 nM,115%,,
"O=C(N[C@H]1CC[C@H](c2nnc(Cc3ccc(Cl)cc3)o2)CC1)c1cc2cc(Cl)ccc2o1 [Compound 247, trans-5-chloro-N-(4-(5-(4-chlorobenzyl)-1,3,4-oxadiazol-2-yl)cyclohexyl)benzofuran-2-carboxamide]",< 10 nM,278%,,
"O=C(Nc1ccc2cc(Cl)ccc2n1)[C@H]1CC[C@H](c2nnc(C3CCC(F)(F)CC3)o2)CC1 [Compound 28, trans-N-(6-chloroquinolin-2-yl)-4-(5-(4,4-difluorocyclohexyl)-1,3,4-oxadiazol-2-yl)cyclohexanecarboxamide]",100 to 1000 nM,23.8%,,
"O=C(N[C@H]1CC[C@H](c2nnc(-c3ccc(Cl)cc3)o2)CC1)c1cc2cc(Cl)ccc2o1 [Compound 6, trans-5-chloro-N-(4-(5-(4-chlorophenyl)-1,3,4-oxadiazol-2-yl)cyclohexyl)benzofuran-2-carboxamide]",< 10 nM,111%,,
"O=C(COc1ccc(Cl)c(F)c1)N[C@H]1CC[C@H](c2nnc(COc3ccc(Cl)cc3)o2)CC1 [Compound 12, trans-2-(4-chloro-3-fluorophenoxy)-N-(4-(5-((4-chlorophenoxy)methyl)-1,3,4-oxadiazol-2-yl)cyclohexyl)acetamide]",< 10 nM,144%,,
"O=C(Nc1ccc2cc(Cl)ccc2n1)[C@H]1CC[C@H](c2cnn(-c3ccc(Cl)cc3)c2)CC1 [Compound 250, trans-4-(1-(4-chlorophenyl)-1H-pyrazol-4-yl)-N-(6-chloroquinolin-2-yl)cyclohexanecarboxamide]",10 to 100 nM,25%,,
"O=C(COc1ccc(Cl)c(F)c1)N[C@H]1CC[C@H](n2cnc(-c3ccc(Cl)cc3)c2)CC1 [Compound 44, trans-2-(4-chloro-3-fluorophenoxy)-N-(4-(4-(4-chlorophenyl)-1H-imidazol-1-yl)cyclohexyl)acetamide]",< 10 nM,39.5%,,
"O=C(Nc1ccc2cc(Cl)ccc2n1)[C@H]1CC[C@H](c2nnc([C@H]3CC[C@@H](C(F)(F)F)CC3)o2)CC1 [Compound 31, trans-N-(6-chloroquinolin-2-yl)-4-(5-(cis-4-(trifluoromethyl)cyclohexyl)-1,3,4-oxadiazol-2-yl)cyclohexanecarboxamide]",> 1000 nM,4.9%,,
"O=C(COc1ccc(Cl)c(F)c1)N[C@H]1CC[C@H](c2nnc(-c3ccc(Cl)cc3)o2)CC1 [Compound 7, trans-2-(4-chloro-3-fluorophenoxy)-N-(4-(5-(4-chlorophenyl)-1,3,4-oxadiazol-2-yl)cyclohexyl)acetamide]",< 10 nM,80.9%,,
"O=C(COc1ccc(Cl)c(F)c1)NN1CCC(c2nnc([C@H]3C[C@@H](OC(F)(F)F)C3)o2)CC1 [Compound 242, 2-(4-chloro-3-fluorophenoxy)-N-(4-(5-(cis-3-(trifluoromethoxy)cyclobutyl)-1,3,4-oxadiazol-2-yl)piperidin-1-yl)acetamide]",< 10 nM,23%,,
"O=C(COc1ccc(Cl)c(F)c1)N[C@H]1CC[C@H](c2cnn(-c3ccc(Cl)cc3)c2)CC1 [Compound 37, trans-2-(4-chloro-3-fluorophenoxy)-N-(4-(1-(4-chlorophenyl)-1H-pyrazol-4-yl)cyclohexyl)acetamide]",< 10 nM,24.3%,,
"O=C(COc1ccc(Cl)cc1)N[C@H]1CC[C@H](c2nnc(-c3ccc(Cl)cc3)o2)CC1 [Compound 8, trans-2-(4-chlorophenoxy)-N-(4-(5-(4-chlorophenyl)-1,3,4-oxadiazol-2-yl)cyclohexyl)acetamide]",,,< 10 nM,96.9%
